Each structure is given as a SMILES string.

These results are taken from patent US9040580B2, “Method for prevention or treatment of degenerative neurologial brain disorders” (B[…]., LTD., priority 2010, dated 2015).

The conditions of series [1]: established by the World Heath Organization (WHO); cited from earlier work.
The test system of series [2] is SH-SY5Y cells. The series can be described thus: Cell protective activity against excitatory brain neurotransmitter (glutamate), WST-1. In kind it is cell-based, human. The note with it: for apoptosis caused by excitatory brain neurotransmitter: 4 h pre-culture, then 2 mM glutamate 24 h, FIG. 5. Here is the method:
(§1) In order to identify whether methylparaben (MP) in cultured cells has cell protective effects against active oxygen, excitatory brain neurotransmitter, and α-synuclein, a cell protective activity test was performed. These materials, that is, the active oxygen, excitatory brain neurotransmitter, and α-synuclein has been indicated as a cause of extensive damage of nerve cells with respect to Parkinson's disease and other degenerative cerebral disorders.
(§2) Each well of a 96-well plate was provided with SH-SY5Y cells (5×10^3 cells; 10% FBS added DMEM medium) derived from human nerve cancer and cultured at 37° C. for 24 hours. After this, 1, 10 and 100 ng/ml of methylparaben (MP), 50 μM Vitamin E (Vit E) or 10 μM MK-801 was added and further cultured for 4 hours. Alternatively, as a control group, a culture solution without the addition of a drug was prepared. After culturing for 4 hours, 300 mM hydrogen peroxide solution (H2O2) generating active oxygen, 2 mM glutamate as an excitatory brain neurotransmitter, and 2 μM α-synuclein were further added and cultured for 24 hours. After culturing, the cultured solution was washed using phosphate buffered saline (PBS). 100 μl cultured solution provided with a 10% cell proliferation reagent (WST-1) was poured into an incubator at 37° C. and reacted for 1 hour under […], and then, absorbance was measured at 450 nm.
In general terms: Tetrazolium dyes change colour on reduction, which living cells bring about.

A short description of series [3]: Hydroxyl radical removal ability test (Fenton reaction, DMPO spin trap, ESR). Format: biochemical. Here is the method: In order to identify active oxygen removal ability of methylparaben (MP), Fenton reaction [H2O2+FeSO4] was performed to derive hydroxyl radicals. The derived hydroxyl radicals were entrapped by a nitrone spin trap (DMPO) and the entrapped DMPO-OH addition product was measured by an electron spin resonance (ESR) spectrometer. ESR spectrum was measured by reacting a reaction reagent [phosphate buffer solution (pH 7.4); 4.5 M DMPO 10 μl, 0.6 mM FeSO4 75 μl, 2.8 M H2O2 75 μl], methylparaben and vitamin C (VitC), then, using an ESR spectrometer (JES-FA, JEOL, Japan), and the measured results are shown in FIG. 2. In this regard, the ESR spectrometer carried out analysis using some parameters [magnetic field 340 mT, power 1.00 mW, frequency 9.19 GHz, amplitude modulation 0.2 mT, gain 200, scanning time 2 minutes, scanning width 10 mT, time constant 0.03 seconds, and temperature 20° C.].

The subject of series [4] is Parkinson's disease model (6-OHDA) C57BL/6 mouse. The series can be described thus: Rotarod test in Parkinson's disease model. In kind it is in vivo. The note with it: FIG. 7. Here is the method: In order to identify whether methylparaben (MP) can improve movement dysfunction of the Parkinson's disease model, a rotarod test was performed and the test results were evaluated on day 14 after the surgery of Parkinson's disease. The rotarod test refers to a test of measuring a residence time when a mouse was riding on a rotarod without falling off. A rotation speed of the rotarod was set to 10 rpm and the rotarod test was performed over 10 minutes after an adaptation time of 5 minutes. A riding time on the rotarod was repeatedly measured three times and a mean value was calculated, then, a final value was represented in the form of the mean value±mean error (n=6).
On the technique in general: In the rotarod test animals must keep their balance on a rotating rod.

Series [5] relates to SH-SY5Y cells. Nature of the series: Cell protective activity against active oxygen (hydrogen peroxide), WST-1. Format: cell-based, human. The note with it: for apoptosis caused by active oxygen: 4 h pre-culture, then 300 mM H2O2 24 h, FIG. 4. Here is the method:
as §1, §2

Series [6] concerns Parkinson's disease model (6-OHDA) C57BL/6 mouse. The series can be described thus: Y-shaped maze test in Parkinson's disease model. In kind it is in vivo. Conditions: FIG. 9. Here is the method:
An Y-shaped maze measurement device has three extending arms to form an alphabet ‘Y’ shape wherein each arm has a length of 35 cm, height of 9 cm, and width of 5 cm, and all arms are formed at the same angle. After positioning a test animal to face an end of one of the arms of the Y-shaped maze, the animal was allowed to freely go around the arms for 8 minutes. Motions of the animal were recorded and, when the animal with hind legs moved inside the arm, the animal was deemed to pass the arm (‘arm entry’). Movement of the animal was represented by the number of crossings (‘alternation’) and one alternation is defined to be when the animal continuously passes three arms. A quantity of spontaneous crossing movement is a percentage ratio of a practical alternation and a maximum possible alternation (that is, a total alternation −2).

Series [7] has the same test system. The series can be described thus: Passive avoidance test in Parkinson's disease model. In kind it is in vivo. The note with it: FIG. 10. Here is the method: As a test device, a shuttle box having a size of 50×15×40 cm in width×length×height and being provided with an electrically conductive grid was used. The box was separated into two rooms, each having a size of 25×15 cm, by a connecting guillotine door (10×10 cm). Each room was illuminated using a 20 W light bulb. Noise was 60 dB or less and the test was performed in a room with very low illumination.
A mouse was placed in one room (A) of the two rooms separated by the door and the door was opened while turning on a light at 1500 lux. By doing this, the mouse looked around the room and entered the other room (B) without illumination. At this time, the door was operated to be automatically closed. By measuring a time taken from the opening of the door while turning on the light, to the closing of the door, a latency time was determined. The mouse may pass from room A to room B if the above process is repeated. If the mouse crossed from room A into room B within 20 seconds by repeating the above described process, a training process was deemed to be completed. […]
The mouse may develop a memory of a relation between the dark room and the foot-shock. […] After 1 day, a time taken from placing the above mouse in room A just before the mouse crossed into room B when a light turned on, was measured. […]

Series [8] relates to SH-SY5Y cells. The series can be described thus: Cell protective activity against α-synuclein, WST-1. Format: cell-based, human. The note with it: for apoptosis caused by α-synuclein: 4 h pre-culture, then 2 μM α-synuclein 24 h, FIG. 6. Here is the method:
as §1, §2

Series [9] relates to Parkinson's disease model (6-OHDA) C57BL/6 mouse. Nature of the series: Observation of rotary movement (apomorphine-induced) in Parkinson's disease model. The note with it: FIG. 8.
Setting [10] is: 100 μg/kg i.p. everyday for 2 weeks.
Setting [11] is: 200 μg/kg i.p. everyday for 2 weeks.

For `CCOC(=O)c1ccc(O)cc1` [ethylparaben], the daily proper intake in series [1] is listed as 10 mg/kg.

As for `COC(=O)c1ccc(O)cc1` [methylparaben], the “apoptosis caused by excitatory brain neurotransmitter” value in series [2] (10 ng/ml) and in series [2] (100 ng/ml) was “significantly suppressed” throughout. Moreover, the “cell protective effect compared with positive control groups” value in [2] (10 and 100 ng/ml, glutamate) is recorded as “substantially similar to 50 μM VitE or 10 μM MK-801”; in series [5] (10 and 100 ng/ml, H2O2), “substantially similar to 50 μM VitE or 10 μM MK-801”; in series [8] (10 and 100 ng/ml, α-synuclein) it was “substantially similar to 50 μM VitE or 10 μM MK-801”. In addition, the “amount of active oxygen (ESR, DMPO-OH)” value in series [3] (adding methylparaben, Fenton reaction, pH 7.4, FIG. 2) is listed as “reduced an amount of active oxygen”. For the same compound, the “active oxygen inhibitory ability compared with VitC” value in [3] (methylparaben 100 μg/ml) is listed as “substantially similar to that of VitC”. Moreover, the “active oxygen inhibitory ability” value in series [3] (methylparaben added, in relation to concentration, FIG. 3, n=4) is recorded as “active oxygen inhibitory ability was increased”. The “movement ability (riding time on rotarod)” value in [4] (setting [10]) and in [4] (setting [11]) was “significantly improving” each time. Also, the “apoptosis caused by active oxygen” value in series [5] (10 ng/ml) and in [5] (100 ng/ml) was “significantly suppressed” throughout. Further, the “memory (spontaneous alternation, Y-shaped maze)” value in series [6] (setting [10]) and in series [6] (setting [11]) was “significantly improving” each time. Moreover, the “memory (latency time, passive avoidance)” value in [7] (setting [10]) and in series [7] (setting [11]) was “significantly improving” each time. Besides, the “apoptosis caused by α-synuclein” value in [8] (10 ng/ml) and in [8] (100 ng/ml) was “significantly suppressed” each time. Besides, the daily proper intake in [1] was 10 mg/kg. The “rotary movement dysfunction (number of revolutions after apomorphine)” value in series [9] (setting [10]) and in series [9] (setting [11]) was “significantly improving” throughout.
